#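 Tested at 5 concentrations; 48 h exposure; 96-well plates; endpoints linearly interpolated, else capped at highest concentration. GI50 = concentration required for 50% inhibition of growth.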 The source made the active and inactive calls. Rule as the data show it: active = GI50 up to about 1.1 µM and inactive = higher.
# Tests used:
# Experiment in all cases: inhibition of tumour cell growth, NCI panel, 48 h
# DU-145 = test system: DU-145
# NCI/ADR-RES = test system: NCI/ADR-RES
# OVCAR-8 = test system: OVCAR-8
# SK-MEL-28 = test system: SK-MEL-28
# MOLT-4 = test system: MOLT-4
# HCT-116 = test system: HCT-116
# COLO 205 = test system: COLO 205
# SF-539 = test system: SF-539
# UACC-257 = test system: UACC-257
# HL-60 = test system: HL-60
# HT-29 = test system: HT-29
# SR = test system: SR
# MDA-N = test system: MDA-N
# Hs-578T = test system: Hs-578T
# MDA-MB-231 = test system: MDA-MB-231
# OVCAR-5 = test system: OVCAR-5
# HOP-62 = test system: HOP-62
# EKVX = test system: EKVX
# ACHN = test system: ACHN
# CCRF-CEM = test system: CCRF-CEM
# SF-268 = test system: SF-268
# SF-295 = test system: SF-295
# HCC 2998 = test system: HCC 2998
# SNB-75 = test system: SNB-75
# UO-31 = test system: UO-31
# TK-10 = test system: TK-10
# CAKI-1 = test system: CAKI-1
# SN12C = test system: SN12C
# T47D = test system: T47D
# MCF7 = test system: MCF7
# NCI-H460 = test system: NCI-H460
# BT-549 = test system: BT-549
# SW-620 = test system: SW-620
# UACC-62 = test system: UACC-62
# SK-MEL-5 = test system: SK-MEL-5
# OVCAR-3 = test system: OVCAR-3
# HCT-15 = test system: HCT-15
# K562 = test system: K562
# U-251 = test system: U-251
# MDA-MB-435 = test system: MDA-MB-435
# A498 = test system: A498
# HOP-92 = test system: HOP-92
# SK-MEL-2 = test system: SK-MEL-2
# A549 = test system: A549
# PC-3 = test system: PC-3
# NCI-H23 = test system: NCI-H23
# RPMI-8226 = test system: RPMI-8226
# M14 = test system: M14
# NCI-H226 = test system: NCI-H226
# LOX IMVI = test system: LOX IMVI
# IGROV-1 = test system: IGROV-1
# 786-0 = test system: 786-0
# SK-OV-3 = test system: SK-OV-3
# SNB-19 = test system: SNB-19
# KM12 = test system: KM12
# Malme-3M = test system: Malme-3M
# OVCAR-4 = test system: OVCAR-4
# NCI-H522 = test system: NCI-H522
# RXF 393 = test system: RXF 393
compound,measurement,setting,value
Nc1ccc2cc3ccc(N)cc3nc2c1,GI50,DU-145,3.33 µM (inactive)
same,GI50,NCI/ADR-RES,1.03 µM (active)
same,GI50,OVCAR-8,0.678 µM (active)
same,GI50,SK-MEL-28,2 µM (inactive)
same,GI50,MOLT-4,0.524 µM (active)
same,GI50,HCT-116,0.482 µM (active)
same,GI50,COLO 205,0.771 µM (active)
same,GI50,SF-539,1.02 µM (active)
same,GI50,UACC-257,2 µM (inactive)
same,GI50,HL-60,1.56 µM (inactive)
same,GI50,HT-29,0.499 µM (active)
same,GI50,SR,0.667 µM (active)
same,GI50,MDA-N,1.41 µM (inactive)
same,GI50,Hs-578T,2.43 µM (inactive)
same,GI50,MDA-MB-231,1.94 µM (inactive)
same,GI50,OVCAR-5,1.63 µM (inactive)
same,GI50,HOP-62,1.62 µM (inactive)
same,GI50,EKVX,1.56 µM (inactive)
same,GI50,ACHN,0.826 µM (active)
same,GI50,CCRF-CEM,1 µM (active)
same,GI50,SF-268,1.37 µM (inactive)
same,GI50,SF-295,2.42 µM (inactive)
same,GI50,HCC 2998,1.25 µM (inactive)
same,GI50,SNB-75,1.34 µM (inactive)
same,GI50,UO-31,0.993 µM (active)
same,GI50,TK-10,2.69 µM (inactive)
same,GI50,CAKI-1,1.56 µM (inactive)
same,GI50,SN12C,0.979 µM (active)
same,GI50,T47D,2.63 µM (inactive)
same,GI50,MCF7,0.757 µM (active)
same,GI50,NCI-H460,0.46 µM (active)
same,GI50,BT-549,3.72 µM (inactive)
same,GI50,SW-620,0.395 µM (active)
same,GI50,UACC-62,1.41 µM (inactive)
same,GI50,SK-MEL-5,1.4 µM (inactive)
same,GI50,OVCAR-3,2.09 µM (inactive)
COC(=O)Cc1c(-c2c(CC(=O)OC)c3ccccc3n2C2OC(COC3OC(COC(C)=O)C(OC(C)=O)C(OC(C)=O)C3OC(C)=O)C(O)C(O)C2O)[nH]c2ccccc12 (centres undefined),GI50,DU-145,> 100 µM (inactive)
same,GI50,HCT-15,> 100 µM
same,GI50,K562,> 100 µM (inactive)
same,GI50,U-251,44.3 µM (inactive)
same,GI50,MDA-MB-435,> 100 µM (inactive)
same,GI50,A498,57.8 µM (inactive)
same,GI50,SK-MEL-28,> 100 µM (inactive)
same,GI50,MOLT-4,> 100 µM (inactive)
same,GI50,HCT-116,> 100 µM (inactive)
same,GI50,COLO 205,> 100 µM (inactive)
same,GI50,HOP-92,27.9 µM (inactive)
same,GI50,SF-539,51.5 µM (inactive)
same,GI50,UACC-257,> 100 µM (inactive)
same,GI50,SK-MEL-2,24.4 µM (inactive)
same,GI50,HL-60,> 100 µM (inactive)
same,GI50,A549,> 100 µM (inactive)
same,GI50,PC-3,> 100 µM (inactive)
same,GI50,HT-29,> 100 µM (inactive)
same,GI50,SR,> 100 µM (inactive)
same,GI50,MDA-N,> 100 µM (inactive)
same,GI50,MDA-MB-231,29.2 µM (inactive)
same,GI50,OVCAR-5,> 100 µM (inactive)
same,GI50,NCI-H23,> 100 µM (inactive)
same,GI50,HOP-62,23 µM (inactive)
same,GI50,RPMI-8226,> 100 µM (inactive)
same,GI50,EKVX,> 100 µM (inactive)
same,GI50,ACHN,> 100 µM (inactive)
same,GI50,CCRF-CEM,> 100 µM (inactive)
same,GI50,M14,> 100 µM (inactive)
same,GI50,SF-295,36.6 µM (inactive)
same,GI50,NCI-H226,61.4 µM (inactive)
same,GI50,UO-31,> 100 µM (inactive)
same,GI50,LOX IMVI,> 100 µM (inactive)
same,GI50,IGROV-1,75.3 µM (inactive)
same,GI50,TK-10,71 µM (inactive)
same,GI50,786-0,37 µM (inactive)
same,GI50,CAKI-1,> 100 µM (inactive)
same,GI50,SN12C,> 100 µM (inactive)
same,GI50,T47D,> 100 µM (inactive)
same,GI50,MCF7,> 100 µM (inactive)
same,GI50,SK-OV-3,74.8 µM (inactive)
same,GI50,NCI-H460,> 100 µM (inactive)
same,GI50,BT-549,44.7 µM (inactive)
same,GI50,SW-620,> 100 µM (inactive)
same,GI50,SNB-19,22.8 µM (inactive)
same,GI50,UACC-62,> 100 µM (inactive)
same,GI50,SK-MEL-5,> 100 µM (inactive)
same,GI50,OVCAR-3,> 100 µM (inactive)
Cn1c(C(O)C2(c3cccnc3)SCCCS2)cc2ccccc21 (centres undefined),GI50,DU-145,> 100 µM (inactive)
same,GI50,HCT-15,> 100 µM
same,GI50,K562,41.1 µM (inactive)
same,GI50,KM12,71.4 µM (inactive)
same,GI50,NCI/ADR-RES,> 100 µM (inactive)
same,GI50,U-251,> 100 µM (inactive)
same,GI50,MDA-MB-435,90.2 µM (inactive)
same,GI50,A498,> 100 µM (inactive)
same,GI50,OVCAR-8,> 100 µM (inactive)
same,GI50,SK-MEL-28,> 100 µM (inactive)
same,GI50,HCT-116,> 100 µM (inactive)
same,GI50,COLO 205,> 100 µM (inactive)
same,GI50,HOP-92,> 100 µM (inactive)
same,GI50,UACC-257,53.3 µM (inactive)
same,GI50,SK-MEL-2,> 100 µM (inactive)
same,GI50,HL-60,50.5 µM (inactive)
same,GI50,Malme-3M,> 100 µM (inactive)
same,GI50,A549,> 100 µM (inactive)
same,GI50,PC-3,66.1 µM (inactive)
same,GI50,HT-29,> 100 µM (inactive)
same,GI50,SR,55.5 µM (inactive)
same,GI50,MDA-N,> 100 µM (inactive)
same,GI50,MDA-MB-231,> 100 µM (inactive)
same,GI50,OVCAR-5,> 100 µM (inactive)
same,GI50,NCI-H23,47.8 µM (inactive)
same,GI50,HOP-62,> 100 µM (inactive)
same,GI50,RPMI-8226,38.5 µM (inactive)
same,GI50,OVCAR-4,67.8 µM (inactive)
same,GI50,EKVX,72.3 µM (inactive)
same,GI50,ACHN,> 100 µM (inactive)
same,GI50,CCRF-CEM,84.7 µM (inactive)
same,GI50,M14,89.7 µM (inactive)
same,GI50,SF-268,> 100 µM (inactive)
same,GI50,SF-295,56.9 µM (inactive)
same,GI50,HCC 2998,> 100 µM (inactive)
same,GI50,NCI-H226,> 100 µM (inactive)
same,GI50,SNB-75,73.3 µM (inactive)
same,GI50,UO-31,37.2 µM (inactive)
same,GI50,LOX IMVI,> 100 µM (inactive)
same,GI50,IGROV-1,30 µM (inactive)
same,GI50,TK-10,> 100 µM (inactive)
same,GI50,786-0,> 100 µM (inactive)
same,GI50,CAKI-1,> 100 µM (inactive)
same,GI50,SN12C,> 100 µM (inactive)
same,GI50,T47D,51.1 µM (inactive)
same,GI50,MCF7,59.2 µM (inactive)
same,GI50,SK-OV-3,> 100 µM (inactive)
same,GI50,NCI-H460,99.3 µM (inactive)
same,GI50,BT-549,44.5 µM (inactive)
same,GI50,SW-620,> 100 µM (inactive)
same,GI50,SNB-19,> 100 µM (inactive)
same,GI50,UACC-62,88.3 µM (inactive)
same,GI50,SK-MEL-5,37.6 µM (inactive)
same,GI50,OVCAR-3,36.6 µM (inactive)
C=CCc1c(C)nc(C)nc1N/N=C/C=C/c1ccccc1,GI50,HCT-15,35.4 µM
same,GI50,K562,23.3 µM (inactive)
same,GI50,NCI/ADR-RES,23.9 µM (inactive)
same,GI50,NCI-H522,28.2 µM (inactive)
same,GI50,U-251,23.6 µM (inactive)
same,GI50,MDA-MB-435,23.6 µM (inactive)
same,GI50,A498,25.9 µM (inactive)
same,GI50,OVCAR-8,32.2 µM (inactive)
same,GI50,SK-MEL-28,41 µM (inactive)
same,GI50,MOLT-4,22.4 µM (inactive)
same,GI50,HCT-116,36.1 µM (inactive)
same,GI50,COLO 205,24.8 µM (inactive)
same,GI50,HOP-92,40.5 µM (inactive)
same,GI50,SF-539,32.1 µM (inactive)
same,GI50,UACC-257,14.4 µM (inactive)
same,GI50,RXF 393,4.06 µM (inactive)
same,GI50,SK-MEL-2,36.7 µM (inactive)
same,GI50,HL-60,33.6 µM (inactive)
same,GI50,Malme-3M,70 µM (inactive)
same,GI50,A549,37.4 µM (inactive)
same,GI50,PC-3,34.9 µM (inactive)
same,GI50,HT-29,30.8 µM (inactive)
same,GI50,SR,22.6 µM (inactive)
same,GI50,MDA-N,29.2 µM (inactive)
same,GI50,Hs-578T,48.9 µM (inactive)
same,GI50,MDA-MB-231,> 100 µM (inactive)
same,GI50,OVCAR-5,99.5 µM (inactive)
same,GI50,NCI-H23,27.9 µM (inactive)
same,GI50,HOP-62,16.5 µM (inactive)
same,GI50,RPMI-8226,21.9 µM (inactive)
same,GI50,OVCAR-4,0.0435 µM (active)
same,GI50,EKVX,17.6 µM (inactive)
same,GI50,ACHN,> 100 µM (inactive)
same,GI50,CCRF-CEM,44 µM (inactive)
same,GI50,M14,31.2 µM (inactive)
same,GI50,SF-268,44.1 µM (inactive)
same,GI50,SF-295,19.5 µM (inactive)
same,GI50,NCI-H226,> 100 µM (inactive)
same,GI50,SNB-75,21.9 µM (inactive)
same,GI50,UO-31,39.7 µM (inactive)
same,GI50,LOX IMVI,39.1 µM (inactive)
same,GI50,IGROV-1,31.4 µM (inactive)
same,GI50,TK-10,33 µM (inactive)
same,GI50,786-0,65.2 µM (inactive)
same,GI50,CAKI-1,58.6 µM (inactive)
same,GI50,SN12C,48 µM (inactive)
same,GI50,T47D,3.73 µM (inactive)
same,GI50,MCF7,23.6 µM (inactive)
same,GI50,SK-OV-3,55.5 µM (inactive)
same,GI50,NCI-H460,22.4 µM (inactive)
same,GI50,BT-549,23.8 µM (inactive)
same,GI50,SW-620,51.8 µM (inactive)
same,GI50,SNB-19,31.8 µM (inactive)
same,GI50,UACC-62,20.6 µM (inactive)
same,GI50,SK-MEL-5,20.3 µM (inactive)
same,GI50,OVCAR-3,19.4 µM (inactive)

# Source: ChEMBL document CHEMBL1201862, “PubChem BioAssay data set” (2004)
